From PMC12073497 (Molecules, 2025) come the findings set out here.

“And” between values parts separate entries of the source, which are not always exact repeats. Equal entries are not always repeated.

A short description of experiment [1]: DPPH radical scavenging (antioxidant) assay. The class given is biochemical. To be noted: means of triplicate ± SEM. From the text:
Oxidative stress is an imbalance between in vivo generated reactive oxygen/ nitrogen species (ROS/NOS) and the cellular antioxidant defenses. Oxidative stress is connected with more than one hundred illnesses that include cardiovascular, cancer, neurogenerative diseases, hypertension, atherosclerosis, and diabetes mellitus. Antioxidants decrease the cellular level of ROS and thus play a significant role in preventing related diseases. Antioxidants react with ROS through three possible mechanisms: (i) hydrogen transfer, (ii) electron transfer, and (iii) metal chelation. DPPH radical scavenging assay relies on the electron/hydrogen atom transfer (mixed) mechanism. The prepared crown ethers with variable cavity sizes 10a–d, parent precursor (FABE) 8, and the novel intermediate 7 were examined for antioxidant behavior using the DPPH radical scavenging protocol, following the literature, and the results are shown in Table 1.
Gulcin et al. proposed a method for the free radical scavenging activity (antioxidant activity) using 1,1-diphenyl-2-picryl-hydrazil (DPPH). An ethanolic solution of DPPH was prepared at a concentration of 0.3 mM. In the next step, different concentrations of each sample were prepared in ethanol, ranging from (62.5–500 μg) by mixing 5 microliters of each sample with 95 µL of DPPH solution. The resulting mixture was transferred to 96-well plates and incubated for 30 min at 37 °C. A microtiter plate reader (Spectramax plus 384 Molecular Device, San Jose, CA, USA) was used to measure the absorbance at 515 nm, and the radical scavenging activity (%) was compared with the methanol-treated control. The standard for the protocol was Butyl hydroxyanisole (BHA). DPPH scavenging effect (%) = Ac − As/Ac × 100, where Ac is the absorbance of the control (DMSO-treated), and As is the absorbance of the sample.

The target of experiment [2] is α-glucosidase (Sigma, type III, from yeast) (Saccharomyces cerevisiae, UniProt P53341). Briefly: α-Glucosidase inhibition assay. The class given is biochemical. To be noted: means of triplicate ± SEM.
Chain of α-glucosidase (Sigma, type III, from yeast) (P53341 whole entry): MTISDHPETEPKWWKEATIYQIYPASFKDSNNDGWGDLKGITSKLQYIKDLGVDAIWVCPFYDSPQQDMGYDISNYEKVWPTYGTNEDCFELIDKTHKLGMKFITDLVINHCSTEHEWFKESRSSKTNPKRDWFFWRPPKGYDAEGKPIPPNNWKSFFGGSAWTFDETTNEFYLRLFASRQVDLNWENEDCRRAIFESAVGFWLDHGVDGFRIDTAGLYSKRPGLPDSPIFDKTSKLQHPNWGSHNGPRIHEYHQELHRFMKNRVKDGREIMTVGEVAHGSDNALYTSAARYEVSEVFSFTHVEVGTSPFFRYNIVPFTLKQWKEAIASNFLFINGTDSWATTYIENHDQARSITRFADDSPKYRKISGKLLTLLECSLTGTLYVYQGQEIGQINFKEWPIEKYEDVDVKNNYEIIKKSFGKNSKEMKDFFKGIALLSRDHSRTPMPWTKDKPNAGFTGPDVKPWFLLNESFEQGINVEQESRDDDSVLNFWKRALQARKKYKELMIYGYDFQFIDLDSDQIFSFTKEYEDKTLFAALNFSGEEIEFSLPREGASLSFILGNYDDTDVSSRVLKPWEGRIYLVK
Procedure: In this background, according to the standard protocol [51], we examined the prepared crown ether molecules 10a–d along with parent precursor FABE 8 and the novel intermediate 7 for their in vitro α-glucosidase inhibition potential.
The protocol for the α-Glucosidase inhibition assay is built on the formation of product as a result of substrate breakdown, detected by absorbance measurement [69]. In the first step, an enzyme α-glucosidase (Sigma, type III, from yeast) was prepared in buffer solution A (0.1 mol/L potassium phosphate, 3.2 mmol/L-MgCl2, pH = 6.8) (0.1 units/mL) mixed with p-nitrophenyl-α-D-glucopyranoside dissolved to obtain the desired concentration of substrate of 6 mmol/L. Another Buffer solution B (102 µL) was prepared by mixing (0.5 M KH2PO4, 16 mmol/L-MgCl2, pH = 6.8) along with 120 µL of sample solution (0.6 mg/mL in dimethyl sulfoxide), 282 µL of water and 200 µL of substrate. In the next step, 200 µL of enzyme was added in the same reaction mixture, incubated for 5 min at 37 °C. […] The activity of enzyme inhibition was measured at 410 nm by its absorbance. […] The inhibition% is equal to Ac − As/Ac × 100, where Ac is the absorbance (control), and As is the absorbance (Sample).

The molecule `COc1ccc(O)cc1C(C)(C)C` [Butylated hydroxyanisole, reference compound] returned a half-inhibitory concentration (IC50) in experiment [1] of 44.2 ± 0.3 µM. Still for that read-out and setting: to `CCCCOC(=O)/C(CCC=C(C)C)=C1\[C@@H](OC(C)=O)C[C@@]2(C)[C@@H]1CC(O)[C@@H]1[C@@]3(C)CCC(O)[C@@H](C)C3CC[C@@]12C` (some centres unmarked) [Compound 8, Butyl(2Z)-2-[(4a,8a,14b,16b)-16-(acetyloxy)-3,11-dihydroxy-4,8,10,14-tetramethylgonan-17-ylidene]-6-methylhept-5-enoate] belongs 54.6 ± 0.2 µM; to `CCCCOC(=O)C(CCC=C(C)C)=C1C(OC(C)=O)CC2(C)C1CC1OCCOCCOC3CCC4(C)C(CCC2(C)C14)C3C` [Compound 10a, Butyl(2Z)-2-[(3aS,16S,17aS,17bS,18S)-16-(acetyloxy)-3a,17a,17b,18-tetramethyloctahydro-3,6 methanocyclopenta[3,4]naptho[1,8hi][1,4,7]trioxyacylotridecin-15(1H)-ylidene]-6-methylhept-5-enoate], 65.5 ± 0.3 µM. Regarding `CCCCOC(=O)/C(CCC=C(C)C)=C1/C2CC3OCCOCCOCCOC4CC[C@@]5(C)C(CC[C@@](C)(C35)[C@@]2(C)C[C@@H]1OC(C)=O)[C@@H]4C` (stereo partly drawn) [Compound 10b, Butyl(2Z)-2-[(3aS,19S,20aS,20bS,21S)-19-(acetyloxy)-3a,20a,20b,21-tetramethylicosahydro-3,6-methanocyclopenta[3,4]naphtho[1,8-kl][1,4,7,10]tetraoxacyclohexadecin-18(1H)-ylidene]-6-methylhept-5-enoate], the 50% inhibitory concentration (IC50) in experiment [1] is 22.5 µM and 32.1 µM. With `CCCCOC(=O)/C(CCC=C(C)C)=C1/C2CC3OCCOCCOCCOCCOC4CC[C@@]5(C)C(CC[C@@](C)(C35)[C@@]2(C)C[C@@H]1OC(C)=O)[C@@H]4C` (stereo partly drawn) [Compound 10c, Butyl(2Z)-2-[(3aS,22S,23aS,23bS,24S)-22-(acetyloxy)-3a,23a,23b,24-tetramethyldocosahydro-3,6-methanocyclopenta[3,4]naphtho[1,8-no][1,4,7,10,13]pentaoxacyclononadecin-21(1H)-ylidene]-6-methylhept-5-enoate], the half-inhibitory concentration (IC50) in experiment [1] is 32.1 µM and 22.5 µM. `CCCCOC(O)(OC(=NC1CCCCC1)NC1CCCCC1)/C(CCC=C(C)C)=C1\[C@@H](OC(C)=O)C[C@@]2(C)[C@H]1C[C@@H](O)[C@H]1[C@@]3(C)CC[C@@H](O)[C@@H](C)[C@@H]3CC[C@@]12C` (some centres unmarked) [Intermediate 7] displayed a half-inhibitory concentration (IC50) in experiment [1] of 32.9 ± 0.4 µM.

In the case of “Butyl(2Z)-2-[(3aS,27S,28aS,28bS,29S)-27-(acetyloxy)-3a,28a,28b,29-tetramethyltetracosahydro-3,6-methanocyclopenta[3,4] naphtho[1,8-st][1,3,6,9,12,15,18]heptaoxacyclotetracosin-26(1H)-ylidene]-6- methylhept-5-enoate [Compound 10d]”, the IC50 in experiment [1] came out at 45.4 ± 0.9 µM; in experiment [2], 54.3 ± 0.1 µM.
